Experimental findings from patent US7420001B2 (Wyeth, priority 2003, dated 2008) are described below.

Each structure is given as a SMILES string. Counter-ions that a name gives are not always drawn.

Assay [1] concerns the target T1, MMP-13 (Homo sapiens, UniProt P45452).
T1 construct: made in house
Briefly: In-vitro fluorescence assay of MMP-13 activity. Type of assay: biochemical. Conditions: recombinant human catalytic domain of MMP-13; read-out: MMP-13 IC50.

Assay [2] deals with T2, MMP-2 (Homo sapiens, UniProt P08253).
T2 construct: purchased Oncogene Research Products (Calbiochem) PF023
T2 sequence (P08253 110-660): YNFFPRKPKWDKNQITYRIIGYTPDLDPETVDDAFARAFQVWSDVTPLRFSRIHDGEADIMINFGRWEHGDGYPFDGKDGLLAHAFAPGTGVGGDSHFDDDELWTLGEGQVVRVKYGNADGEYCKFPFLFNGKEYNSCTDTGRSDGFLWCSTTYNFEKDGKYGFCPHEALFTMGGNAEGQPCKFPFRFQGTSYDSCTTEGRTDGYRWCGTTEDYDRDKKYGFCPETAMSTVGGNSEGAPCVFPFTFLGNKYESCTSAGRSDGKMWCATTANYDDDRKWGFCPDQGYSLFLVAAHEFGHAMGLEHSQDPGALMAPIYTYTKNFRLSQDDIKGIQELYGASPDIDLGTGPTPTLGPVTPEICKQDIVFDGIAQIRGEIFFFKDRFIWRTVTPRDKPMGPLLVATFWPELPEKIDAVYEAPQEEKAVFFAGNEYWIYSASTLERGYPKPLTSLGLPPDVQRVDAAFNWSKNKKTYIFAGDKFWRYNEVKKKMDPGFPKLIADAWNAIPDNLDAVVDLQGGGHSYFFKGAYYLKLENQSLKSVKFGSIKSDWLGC
Briefly: In-vitro fluorescence assay of MMP-2 activity. It is filed as biochemical. Conditions: recombinant human MMP-2; read-out: MMP-2 IC50.

In general, IC50 refers to the concentration at which inhibition is half-maximal. Consider `CC(C)C[C@H](NS(=O)(=O)c1ccc(-c2ccc(NC(=O)c3cc4ccccc4o3)cc2)cc1)C(=O)O` [Example 18, N-({4′-[(1-Benzofuran-2-ylcarbonyl)amino]-1,1′-biphenyl-4-yl}sulfonyl)-L-leucine], for which the concentration for half-maximal inhibition (IC50) stood at 2.2 nM in assay [1] and 8.4 nM in assay [2].
For the compound `Cc1c(C(=O)Nc2ccc(-c3ccc(S(=O)(=O)N[C@H](C(=O)O)C(C)C)cc3)cc2)oc2cccc(C#CC3CC3)c12` [Example 23, 2-{4′-[(4-Cyclopropylethynyl-3-methyl-benzofuran-2-carbonyl)-amino]-biphenyl-4-sulfonylamino}-3-methyl-butyric acid], the IC50 in assay [1] was 21 nM; in assay [2], 3000 nM.
The like results for `Cc1c(C(=O)Nc2ccc(-c3ccc(S(=O)(=O)N[C@H](C(=O)O)C(C)C)cc3)cc2)oc2cccc(CCC3CC3)c12` [Example 24, L-2-(4′-{[4-(2-Cyclopropyl-ethyl)-3-methyl-benzofuran-2-carbonyl]-amino}-biphenyl-4-sulfonylamino)-3-methyl-butyric acid] were, in that order, 24 nM and 8000 nM.
For `COC/C=C\c1cccc2oc(C(=O)Nc3ccc(-c4ccc(S(=O)(=O)N[C@H](C(=O)O)C(C)C)cc4)cc3)c(C)c12` [Example 25, L-2-(4′-{[4-(3-Methoxy-Z-propenyl)-3-methyl-benzofuran-2-carbonyl]-amino}-biphenyl-4-sulfonylamino)-3-methyl-butyric acid] the same measures were 14 nM and 6320 nM.
For `Cc1c(C(=O)Nc2ccc(-c3ccc(S(=O)(=O)N[C@H](C(=O)O)C(C)C)cc3)cc2)oc2cccc(C#CCO)c12` [Example 26, L-2-(4′-{[4-(3-Hydroxy-prop-1-ynyl)-3-methyl-benzofuran-2-carbonyl]-amino}-biphenyl-4-sulfonylamino)-3-methyl-butyric acid] the same measures were 6.2 nM and 3380 nM.
Take `Cc1c(C(=O)Nc2ccc(-c3ccc(S(=O)(=O)N[C@H](C(=O)O)C(C)C)cc3)cc2)oc2cccc(CCCO)c12` [Example 27, L-2-(4′-{[4-(3-Hydroxy-propyl)-3-methyl-benzofuran-2-carbonyl]-amino}-biphenyl-4-sulfonylamino)-3-methyl-butyric acid]: the IC50 in assay [1] worked out at 7.1 nM; in assay [2], 4410 nM.
`Cc1c(C(=O)Nc2ccc(-c3ccc(S(=O)(=O)N[C@H](C(=O)O)C(C)C)cc3)cc2)oc2cccc(C#CCC(C)C)c12` [Example 28, L-3-Methyl-2-(4′-{[3-methyl-4-(4-methyl-pent-1-ynyl)-benzofuran-2-carbonyl]-amino}-biphenyl-4-sulfonylamino)-butyric acid]: the values for the IC50 in assay [1] and in assay [2] were 47 nM and 6640 nM, respectively.
As for `Cc1c(C(=O)Nc2ccc(-c3ccc(S(=O)(=O)N[C@H](C(=O)O)C(C)C)cc3)cc2)oc2cccc(CCCC(C)C)c12` [Example 29, L-3-Methyl-2-(4′-{[3-methyl-4-(4-methyl-pentyl)-benzofuran-2-carbonyl]-amino}-biphenyl-4-sulfonylamino)-butyric acid], the IC50 in assay [1] was found to be 37 nM; in assay [2], 9320 nM.
The like results for `Cc1c(C(=O)Nc2ccc(-c3ccc(S(=O)(=O)N[C@H](C(=O)O)C(C)C)cc3)cc2)oc2cccc(CCCN(C)C)c12` [Example 32, L-2-(4′-{[4-(3-Dimethylamino-propyl)-3-methyl-benzofuran-2-carbonyl]-animo}-biphenyl-4-sulfonylamino)-3-methyl-butyric acid] were, in that order, 21 nM and 3150 nM.
The like results for `C#Cc1cccc2oc(C(=O)Nc3ccc(-c4ccc(S(=O)(=O)N[C@H](C(=O)O)C(C)C)cc4)cc3)c(C)c12` [Example 33, L-2-{4′-[(4-Ethynyl-3-methyl-benzofuran-2-carbonyl)-amino]-biphenyl-4-sulfonylamino}-3-methyl-butyric acid] were, in that order, 6.1 nM and 595 nM.
As to `Cc1c(C(=O)Nc2ccc(-c3ccc(S(=O)(=O)N[C@H](C(=O)O)C(C)C)cc3)cc2)oc2cccc(C#CC(C)(C)C)c12` [Example 34, L-2-(4′-{[4-(3,3-Dimethyl-but-1-ynyl)-3-methyl-benzofuran-2-carbonyl]-amino}-biphenyl-4-sulfonylamino)-3-methyl-butyric acid], the IC50 came out at 152 nM in assay [1] and 2500 nM in assay [2].
The like results for `Cc1c(C(=O)Nc2ccc(-c3ccc(S(=O)(=O)N[C@H](C(=O)O)C(C)C)cc3)cc2)oc2cccc(N(C)S(C)(=O)=O)c12` [Example 37, L-2-(4′-{[4-(Methanesulfonyl-methyl-animo)-3-methyl-benzofuran-2-carbonyl]-amino}-biphenyl-4-sulfonylamino)-3-methyl-butyric acid] were, in that order, 16 nM and 2340 nM.
`Cc1c(C(=O)Nc2ccc(-c3ccc(S(=O)(=O)N[C@H](C(=O)O)C(C)O)cc3)nc2)oc2cccc(NS(C)(=O)=O)c12` (stereo partly drawn) [Example 38, L-3-Hydroxy-2-(4-{5-[(4-methanesulfonylamino-3-methyl-benzofuran-2-carbonyl)-amino]-pyridin-2-yl}-benzenesulfonylamino)-butyric acid]: the 50% inhibitory concentration (IC50) came out at 28 nM in assay [1] and 8890 nM in assay [2].
The like results for `Cc1c(C(=O)Nc2ccc(-c3ccc(S(=O)(=O)N[C@H](C(=O)O)C(C)C)cc3)nc2)oc2cccc(NS(C)(=O)=O)c12` [Example 39, L-2-(4-{5-[(4-Methanesulfonylamino-3-methyl-benzofuran-2-carbonyl)-amino]-pyridin-2-yl}-benzenesulfonylamino)-3-methyl-butyric acid] were, in that order, 30 nM and 7500 nM.
The like results for `Cc1c(C(=O)Nc2ccc(-c3ccc(S(=O)(=O)N[C@H](C(=O)O)C(C)C)cc3)nc2)oc2cccc(C#N)c12` [Example 40, L-2-(4-{5-[(4-Cyano-3-methyl-benzofuran-2-carbonyl)-amino]-pyridin-2-yl}-benzenesulfonylamino)-3-methyl-butyric acid] were, in that order, 16.2 nM and 2840 nM.
`Cc1c(C(=O)Nc2ccc(-c3ccc(S(=O)(=O)N[C@@H](C(=O)O)C(C)C)cc3)cc2)oc2cccc(NS(C)(=O)=O)c12` [Example 41, D-2-{4-[(4-Methanesulfonylamino-3-methyl-benzofuran-2-carbonyl)-amino]-biphenyl-4-sulfonylamino}-3-methyl-butyric acid]: the results for the IC50 in assay [1] and in assay [2] were 8.5 nM and 1460 nM, respectively.
For `Cc1c(C(=O)Nc2ccc(-c3ccc(S(=O)(=O)N(C)[C@H](C(=O)O)C(C)C)cc3)cc2)oc2cccc(C#N)c12` [Example 42, L-2-({4′-[(4-Cyano-3-methyl-benzofuran-2-carbonyl)-amino]-biphenyl-4-sulfonyl}-methyl-amino)-3-methyl-butyric acid] the same measures were 41 nM and 1590 nM.
The like results for `CNC(=O)c1cccc2oc(C(=O)Nc3ccc(-c4ccc(S(=O)(=O)N[C@H](C(=O)O)C(C)C)cc4)cc3)c(C)c12` [Example 43A, (L-3-methyl-2-{4′-[(3-methyl-4-methylcarbamoyl-benzofuran-2-carbonyl)-amino]-biphenyl-4-sulfonylamino}-butyric acid triethylamine salt] were, in that order, 22 nM and 6720 nM.
The like results for `Cc1c(C(=O)Nc2ccc(-c3ccc(S(=O)(=O)N[C@H](C(=O)O)C(C)C)cc3)cc2)oc2cccc(C(=O)N(C)C)c12` [Example 43B, 2-{4′-[(4-dimethylcarbamoyl-3-methyl-benzofuran-2-carbonyl)-amino]-biphenyl-4-sulfonylamino}-3-methyl-butyric acid triethylamine salt] were, in that order, 18 nM and 7770 nM.
Take `Cc1c(C(=O)Nc2ccc(-c3ccc(S(=O)(=O)N[C@H](C(=O)O)C(C)C)cc3)cc2)oc2ccc(Br)cc12` [Example 45, 2-{4′-[(5-Bromo-3-methyl-benzofuran-2-carbonyl)-amino]-biphenyl-4-sulfonylamino}-3-methyl-butyric acid]: the values for the IC50 in assay [1] and in assay [2] were 3 nM and 81 nM, respectively.
The like results for `CCC(=O)Nc1cccc2oc(C(=O)Nc3ccc(-c4ccc(S(=O)(=O)N[C@H](C(=O)O)C(C)C)cc4)cc3)c(C)c12` [Example 49, L-3-Methyl-2-{4′-[(3-methyl-4-propionylamino-benzofuran-2-carbonyl)-amino]-biphenyl-4-sulfonylamino}-butyric acid] were, in that order, 35 nM and 5770 nM.
The like results for `Cc1c(C(=O)Nc2ccc(-c3ccc(S(=O)(=O)N[C@H](C(=O)O)C(C)C)cc3)cc2)oc2cccc(NC(=O)C(C)C)c12` [Example 50, L-2-{4′-[(4-Isobutyrylamino-3-methyl-benzofuran-2-carbonyl)-amino]-biphenyl-4-sulfonylamino}-3-methyl-butyric acid] were, in that order, 45 nM and 7710 nM.
For `CC(C)[C@H](NS(=O)(=O)c1ccc(-c2ccc(NC(=O)c3nc4ccccc4[nH]3)cc2)cc1)C(=O)O` [Example 52, L-2-{4′-[(1H-Benzoimidazole-2-carbonyl)-amino]-biphenyl-4-sulfonylamino}-3-methyl-butyric acid], the IC50 in assay [1] and in assay [2] was 0.4 nM each time.
